Each block holds one molecule with its values, some of them ahead of it.
Tests used:
Assay in all cases: Caliper, Mobility shift assay off-chip
[1] = molecular target: ABL1 (human) (UniProt P00519)
[2] = molecular target: AURKA (human) (UniProt O14965)
[3] = molecular target: BTK (human) (UniProt Q06187)
[4] = molecular target: CAMK4 (human) (UniProt Q16566)
[5] = molecular target: CDK1 CCNB1 (human) (UniProt P06493+P14635)
[6] = molecular target: CDK3 CCNE1 (human) (UniProt P24864+Q00526)
[7] = molecular target: CDK5 CDK5R1 p35 (human) (UniProt Q00535+Q15078)
[8] = molecular target: CHEK2 (human) (UniProt O96017)
[9] = molecular target: CSNK1G3 (human) (UniProt Q9Y6M4)
[10] = molecular target: DMPK (human) (UniProt Q09013)
[11] = test system: EGFR (human), P00533 [L858R]
[12] = test system: EGFR (human), P00533 [L861Q]
[13] = test system: FGFR2 (human), P21802 [N549H]
[14] = molecular target: FLT1 (human) (UniProt P17948)
[15] = molecular target: FLT4 (human) (UniProt P35916)
[16] = molecular target: FRK (human) (UniProt P42685)
[17] = molecular target: GRK5 (human) (UniProt P34947)
[18] = molecular target: HIPK2 (human) (UniProt Q9H2X6)
[19] = molecular target: JAK2 JH1 JH2 (human) (UniProt O60674)
[20] = molecular target: LYN (human) (UniProt P07948)
[21] = molecular target: MAPK10 (human) (UniProt P53779)
[22] = molecular target: MAPK14 (human) (UniProt Q16539)
[23] = molecular target: NTRK2 (human) (UniProt Q16620)
[24] = molecular target: NUAK1 (human) (UniProt O60285)
[25] = test system: PDGFRA (human), P16234 [D842V]
[26] = molecular target: PRKACA (human) (UniProt P17612)
[27] = molecular target: PRKCD (human) (UniProt Q05655)
[28] = molecular target: PRKCQ (human) (UniProt Q04759)
[29] = molecular target: PRKD2 (human) (UniProt Q9BZL6)
[30] = molecular target: PRKG1 (human) (UniProt Q13976)
[31] = molecular target: PRKG2 (human) (UniProt Q13237)
[32] = molecular target: PTK2B (human) (UniProt Q14289)
[33] = molecular target: RPS6KA3 KD1 KD2 (human) (UniProt P51812)
[34] = molecular target: SGK3 (human) (UniProt Q96BR1)
[35] = molecular target: SRPK1 (human) (UniProt Q96SB4)
[36] = molecular target: STK24 (human) (UniProt Q9Y6E0)
[37] = molecular target: TAOK2 (human) (UniProt Q9UL54)
[38] = molecular target: TBK1 (human) (UniProt Q9UHD2)
[39] = molecular target: TNK2 (human) (UniProt Q07912)
[40] = molecular target: WNK2 (human) (UniProt Q9Y3S1)
[41] = molecular target: YES1 (human) (UniProt P07947)

Sequence of PRKD2 (human) (Q9BZL6 whole entry, looked up): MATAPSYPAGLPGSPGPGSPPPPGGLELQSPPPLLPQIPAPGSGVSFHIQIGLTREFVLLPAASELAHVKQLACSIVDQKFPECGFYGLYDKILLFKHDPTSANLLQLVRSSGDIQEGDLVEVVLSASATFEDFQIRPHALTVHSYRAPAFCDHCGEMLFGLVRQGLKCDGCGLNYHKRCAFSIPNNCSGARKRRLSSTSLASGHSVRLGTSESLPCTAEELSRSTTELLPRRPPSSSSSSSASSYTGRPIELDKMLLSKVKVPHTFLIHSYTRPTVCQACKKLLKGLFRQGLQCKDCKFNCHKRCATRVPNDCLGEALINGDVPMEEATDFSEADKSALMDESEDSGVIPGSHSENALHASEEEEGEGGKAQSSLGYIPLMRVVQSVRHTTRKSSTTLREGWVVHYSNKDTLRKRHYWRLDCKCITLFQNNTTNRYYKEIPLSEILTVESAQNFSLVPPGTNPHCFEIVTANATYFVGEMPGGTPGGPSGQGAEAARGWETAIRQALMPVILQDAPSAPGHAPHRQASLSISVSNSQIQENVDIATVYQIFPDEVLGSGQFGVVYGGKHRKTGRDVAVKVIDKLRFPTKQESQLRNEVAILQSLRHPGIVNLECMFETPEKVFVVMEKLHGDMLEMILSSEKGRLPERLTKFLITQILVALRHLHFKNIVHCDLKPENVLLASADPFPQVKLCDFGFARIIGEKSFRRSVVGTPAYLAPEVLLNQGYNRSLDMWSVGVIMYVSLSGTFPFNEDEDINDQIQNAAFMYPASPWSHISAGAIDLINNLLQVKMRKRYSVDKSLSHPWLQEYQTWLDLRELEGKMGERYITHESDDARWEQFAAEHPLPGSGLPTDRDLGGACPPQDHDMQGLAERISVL
Sequence of FLT1 (human) (P17948 whole entry, looked up): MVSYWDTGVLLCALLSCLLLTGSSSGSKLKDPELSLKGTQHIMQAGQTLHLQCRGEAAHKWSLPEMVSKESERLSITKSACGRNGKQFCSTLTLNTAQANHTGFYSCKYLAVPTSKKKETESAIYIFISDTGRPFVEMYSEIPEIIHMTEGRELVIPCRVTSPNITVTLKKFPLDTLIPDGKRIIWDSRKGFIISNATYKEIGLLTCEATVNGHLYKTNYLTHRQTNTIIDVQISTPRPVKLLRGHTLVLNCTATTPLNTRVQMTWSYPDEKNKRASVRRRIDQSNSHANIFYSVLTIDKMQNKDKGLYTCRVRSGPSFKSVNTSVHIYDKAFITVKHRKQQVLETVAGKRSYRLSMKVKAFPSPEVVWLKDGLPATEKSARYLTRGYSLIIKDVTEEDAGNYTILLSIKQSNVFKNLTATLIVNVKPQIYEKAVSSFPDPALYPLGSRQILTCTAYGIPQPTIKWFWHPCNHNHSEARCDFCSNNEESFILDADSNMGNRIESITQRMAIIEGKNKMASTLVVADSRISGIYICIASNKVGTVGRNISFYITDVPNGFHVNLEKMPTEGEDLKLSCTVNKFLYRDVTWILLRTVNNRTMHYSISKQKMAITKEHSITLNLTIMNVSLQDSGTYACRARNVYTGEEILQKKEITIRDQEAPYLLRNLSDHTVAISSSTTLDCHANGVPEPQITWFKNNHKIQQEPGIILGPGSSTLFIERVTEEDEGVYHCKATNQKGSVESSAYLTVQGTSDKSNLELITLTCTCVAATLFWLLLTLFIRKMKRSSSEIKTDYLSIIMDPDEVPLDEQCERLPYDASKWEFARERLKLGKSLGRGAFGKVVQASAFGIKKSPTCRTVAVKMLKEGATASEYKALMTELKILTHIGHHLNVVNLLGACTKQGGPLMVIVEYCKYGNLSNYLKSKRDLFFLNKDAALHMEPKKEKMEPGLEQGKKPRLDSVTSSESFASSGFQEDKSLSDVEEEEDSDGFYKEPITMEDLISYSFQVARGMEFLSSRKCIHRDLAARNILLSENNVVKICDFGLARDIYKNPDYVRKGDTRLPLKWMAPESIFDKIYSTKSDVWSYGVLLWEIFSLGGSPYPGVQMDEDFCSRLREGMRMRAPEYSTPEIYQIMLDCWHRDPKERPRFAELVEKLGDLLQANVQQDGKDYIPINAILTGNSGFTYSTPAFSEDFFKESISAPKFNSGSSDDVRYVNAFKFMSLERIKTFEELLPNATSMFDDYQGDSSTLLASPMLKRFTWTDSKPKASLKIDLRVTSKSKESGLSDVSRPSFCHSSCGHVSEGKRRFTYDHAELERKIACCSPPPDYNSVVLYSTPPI
Sequence of PRKCQ (human) (Q04759 whole entry, looked up): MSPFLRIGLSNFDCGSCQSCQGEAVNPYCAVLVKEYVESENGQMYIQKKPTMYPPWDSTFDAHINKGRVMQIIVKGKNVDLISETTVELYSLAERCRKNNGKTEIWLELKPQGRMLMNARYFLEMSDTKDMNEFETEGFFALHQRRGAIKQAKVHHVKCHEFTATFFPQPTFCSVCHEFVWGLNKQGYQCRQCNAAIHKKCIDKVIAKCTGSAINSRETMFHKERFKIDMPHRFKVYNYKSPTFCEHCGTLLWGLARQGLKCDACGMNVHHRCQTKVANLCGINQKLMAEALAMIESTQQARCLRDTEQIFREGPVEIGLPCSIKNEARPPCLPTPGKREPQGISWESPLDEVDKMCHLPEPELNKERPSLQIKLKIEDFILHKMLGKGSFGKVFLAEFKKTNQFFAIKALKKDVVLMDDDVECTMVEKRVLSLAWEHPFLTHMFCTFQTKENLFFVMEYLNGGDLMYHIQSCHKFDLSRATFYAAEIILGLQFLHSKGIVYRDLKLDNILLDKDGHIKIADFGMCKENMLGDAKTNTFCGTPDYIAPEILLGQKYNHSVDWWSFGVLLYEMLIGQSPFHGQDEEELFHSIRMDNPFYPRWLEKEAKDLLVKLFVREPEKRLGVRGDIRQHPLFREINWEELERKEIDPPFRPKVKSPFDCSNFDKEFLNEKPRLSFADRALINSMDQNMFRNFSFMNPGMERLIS
Sequence of PRKCD (human) (Q05655 whole entry, looked up): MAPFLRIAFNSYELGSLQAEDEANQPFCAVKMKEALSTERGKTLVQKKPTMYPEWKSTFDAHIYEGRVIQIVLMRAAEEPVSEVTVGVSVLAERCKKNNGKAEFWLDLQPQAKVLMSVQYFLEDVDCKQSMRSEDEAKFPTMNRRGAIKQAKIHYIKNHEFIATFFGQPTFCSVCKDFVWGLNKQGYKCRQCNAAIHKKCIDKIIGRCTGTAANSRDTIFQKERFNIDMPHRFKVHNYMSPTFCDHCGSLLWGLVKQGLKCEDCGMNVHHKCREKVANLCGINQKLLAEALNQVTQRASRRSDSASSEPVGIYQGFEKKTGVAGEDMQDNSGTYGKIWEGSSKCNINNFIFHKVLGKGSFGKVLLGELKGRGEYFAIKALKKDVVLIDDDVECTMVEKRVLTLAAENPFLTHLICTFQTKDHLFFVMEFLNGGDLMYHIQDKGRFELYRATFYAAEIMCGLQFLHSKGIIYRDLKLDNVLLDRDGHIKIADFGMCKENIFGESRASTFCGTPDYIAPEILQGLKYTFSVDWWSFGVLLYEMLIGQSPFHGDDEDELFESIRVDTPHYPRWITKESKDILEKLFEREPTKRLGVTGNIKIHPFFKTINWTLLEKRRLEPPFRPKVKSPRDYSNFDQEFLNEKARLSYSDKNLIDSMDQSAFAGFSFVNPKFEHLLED
Sequence of TBK1 (human) (Q9UHD2 whole entry, looked up): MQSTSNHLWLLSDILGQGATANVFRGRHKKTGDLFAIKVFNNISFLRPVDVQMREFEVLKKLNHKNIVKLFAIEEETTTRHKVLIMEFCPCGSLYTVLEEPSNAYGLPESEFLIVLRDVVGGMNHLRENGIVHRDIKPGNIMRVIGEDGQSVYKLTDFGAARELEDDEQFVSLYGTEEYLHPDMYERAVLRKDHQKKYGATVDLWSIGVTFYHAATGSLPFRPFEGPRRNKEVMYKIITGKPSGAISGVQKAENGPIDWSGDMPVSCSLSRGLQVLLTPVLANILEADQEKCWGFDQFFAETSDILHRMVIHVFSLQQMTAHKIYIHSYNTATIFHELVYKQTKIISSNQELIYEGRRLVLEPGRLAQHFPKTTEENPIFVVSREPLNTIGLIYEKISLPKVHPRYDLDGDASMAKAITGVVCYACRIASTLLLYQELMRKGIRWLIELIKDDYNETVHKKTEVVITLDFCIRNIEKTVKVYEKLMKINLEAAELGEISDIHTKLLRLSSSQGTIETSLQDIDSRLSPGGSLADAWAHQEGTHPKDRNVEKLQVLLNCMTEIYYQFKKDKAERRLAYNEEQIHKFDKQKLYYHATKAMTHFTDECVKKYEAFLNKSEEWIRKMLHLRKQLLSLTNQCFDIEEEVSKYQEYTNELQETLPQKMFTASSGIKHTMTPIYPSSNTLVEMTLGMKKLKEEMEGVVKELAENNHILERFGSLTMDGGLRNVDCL
Sequence of MAPK10 (human) (P53779 whole entry, looked up): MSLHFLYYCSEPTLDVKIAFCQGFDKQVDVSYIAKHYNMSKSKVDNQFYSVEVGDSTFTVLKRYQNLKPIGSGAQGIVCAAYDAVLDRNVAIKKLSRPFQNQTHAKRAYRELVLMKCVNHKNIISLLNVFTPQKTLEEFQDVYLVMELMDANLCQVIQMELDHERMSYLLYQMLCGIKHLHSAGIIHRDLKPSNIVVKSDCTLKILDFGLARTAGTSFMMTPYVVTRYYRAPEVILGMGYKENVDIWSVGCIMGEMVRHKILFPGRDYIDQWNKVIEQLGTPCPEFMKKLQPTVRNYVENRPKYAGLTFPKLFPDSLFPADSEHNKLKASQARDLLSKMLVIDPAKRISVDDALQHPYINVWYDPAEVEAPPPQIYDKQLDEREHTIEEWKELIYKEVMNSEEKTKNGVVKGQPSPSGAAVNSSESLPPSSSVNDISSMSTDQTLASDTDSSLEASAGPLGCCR

residual activity ([1]; compound 1.0 µM): 71%
residual activity ([2]; compound 1.0 µM): 7%
residual activity ([3]; compound 1.0 µM): 79%
residual activity ([4]; compound 1.0 µM): 22%
residual activity ([5]; compound 1.0 µM): 100%
residual activity ([6]; compound 1.0 µM): 106%
residual activity ([7]; compound 1.0 µM): 122%
residual activity ([8]; compound 1.0 µM): 4%
residual activity ([9]; compound 1.0 µM): 113%
residual activity ([10]; compound 1.0 µM): 100%
residual activity ([11]; compound 1.0 µM): 76%
residual activity ([12]; compound 1.0 µM): 68%
residual activity ([13]; compound 1.0 µM): 23%
residual activity ([14]; compound 1.0 µM): 28%
residual activity ([15]; compound 1.0 µM): 2%
residual activity ([16]; compound 1.0 µM): 92%
residual activity ([17]; compound 1.0 µM): 122%
residual activity ([18]; compound 1.0 µM): 104%
residual activity ([19]; compound 1.0 µM): 106%
residual activity ([20]; compound 1.0 µM): 72%
residual activity ([21]; compound 1.0 µM): 71%
residual activity ([22]; compound 1.0 µM): 107%
residual activity ([23]; compound 1.0 µM): 59%
residual activity ([24]; compound 1.0 µM): 11%
residual activity ([25]; compound 1.0 µM): 1%
residual activity ([26]; compound 1.0 µM): 106%
residual activity ([27]; compound 1.0 µM): 79%
residual activity ([28]; compound 1.0 µM): 78%
residual activity ([29]; compound 1.0 µM): 96%
residual activity ([30]; compound 1.0 µM): 97%
residual activity ([31]; compound 1.0 µM): 88%
residual activity ([32]; compound 1.0 µM): 59%
residual activity ([33]; compound 1.0 µM): 5%
residual activity ([34]; compound 1.0 µM): 104%
residual activity ([35]; compound 1.0 µM): 104%
residual activity ([36]; compound 1.0 µM): 125%
residual activity ([37]; compound 1.0 µM): 101%
residual activity ([38]; compound 1.0 µM): 78%
residual activity ([39]; compound 1.0 µM): 32%
residual activity ([40]; compound 1.0 µM): 98%
residual activity ([41]; compound 1.0 µM): 63%
SMILES: C[C@@H](Nc1nc2c(C#CC3CC3)c[nH]c(=O)c2c2cc(-c3cn[nH]c3)ccc12)C(C)(C)C

residual activity ([1]; compound 1.0 µM): 113%
residual activity ([2]; compound 1.0 µM): 104%
residual activity ([3]; compound 1.0 µM): 95%
residual activity ([4]; compound 1.0 µM): 61%
residual activity ([5]; compound 1.0 µM): 183%
residual activity ([6]; compound 1.0 µM): 96%
residual activity ([8]; compound 1.0 µM): 5%
residual activity ([10]; compound 1.0 µM): 114%
residual activity ([11]; compound 1.0 µM): 105%
residual activity ([12]; compound 1.0 µM): 99%
residual activity ([14]; compound 1.0 µM): 86%
residual activity ([18]; compound 1.0 µM): 105%
residual activity ([19]; compound 1.0 µM): 100%
residual activity ([20]; compound 1.0 µM): 99%
residual activity ([21]; compound 1.0 µM): 110%
residual activity ([22]; compound 1.0 µM): 94%
residual activity ([23]; compound 1.0 µM): 50%
residual activity ([24]; compound 1.0 µM): 4%
residual activity ([26]; compound 1.0 µM): 74%
residual activity ([27]; compound 1.0 µM): 78%
residual activity ([28]; compound 1.0 µM): 98%
residual activity ([29]; compound 1.0 µM): 56%
residual activity ([30]; compound 1.0 µM): 95%
residual activity ([32]; compound 1.0 µM): 21%
residual activity ([33]; compound 1.0 µM): 2%
residual activity ([34]; compound 1.0 µM): 94%
residual activity ([35]; compound 1.0 µM): 106%
residual activity ([38]; compound 1.0 µM): 59%
residual activity ([41]; compound 1.0 µM): 77%
SMILES: Cc1n[nH]c2c1c(=O)n(CCCN)c1ccc(Cl)cc21

SMILES: O=C(N[C@@H](COc1ccc2[nH]c(=O)[nH]c2c1)c1ccccc1)c1cccn(Cc2ccc(F)c(F)c2)c1=O
residual activity ([1]; compound 10.0 µM): 115%
residual activity ([2]; compound 10.0 µM): 107%
residual activity ([3]; compound 10.0 µM): 107%
residual activity ([4]; compound 10.0 µM): 96%
residual activity ([5]; compound 10.0 µM): 111%
residual activity ([6]; compound 10.0 µM): 113%
residual activity ([7]; compound 10.0 µM): 97%
residual activity ([8]; compound 10.0 µM): 132%
residual activity ([9]; compound 10.0 µM): 99%
residual activity ([10]; compound 10.0 µM): 105%
residual activity ([11]; compound 10.0 µM): 102%
residual activity ([12]; compound 10.0 µM): 96%
residual activity ([13]; compound 10.0 µM): 106%
residual activity ([14]; compound 10.0 µM): 95%
residual activity ([15]; compound 10.0 µM): 109%
residual activity ([16]; compound 10.0 µM): 96%
residual activity ([17]; compound 10.0 µM): 69%
residual activity ([18]; compound 10.0 µM): 107%
residual activity ([19]; compound 10.0 µM): 106%
residual activity ([20]; compound 10.0 µM): 115%
residual activity ([21]; compound 10.0 µM): 105%
residual activity ([22]; compound 10.0 µM): 107%
residual activity ([23]; compound 10.0 µM): 95%
residual activity ([24]; compound 10.0 µM): 106%
residual activity ([25]; compound 10.0 µM): 108%
residual activity ([26]; compound 10.0 µM): 117%
residual activity ([27]; compound 10.0 µM): 105%
residual activity ([28]; compound 10.0 µM): 108%
residual activity ([29]; compound 10.0 µM): 110%
residual activity ([30]; compound 10.0 µM): 111%
residual activity ([31]; compound 10.0 µM): 108%
residual activity ([32]; compound 10.0 µM): 98%
residual activity ([33]; compound 10.0 µM): 124%
residual activity ([34]; compound 10.0 µM): 117%
residual activity ([35]; compound 10.0 µM): 104%
residual activity ([36]; compound 10.0 µM): 100%
residual activity ([37]; compound 10.0 µM): 98%
residual activity ([38]; compound 10.0 µM): 93%
residual activity ([39]; compound 10.0 µM): 101%
residual activity ([40]; compound 10.0 µM): 104%
residual activity ([41]; compound 10.0 µM): 91%

— the kinase profiling compilation of Christmann-Franck et al. (2016)
